# Reference: patent US7105652B2, “Human tumor suppressor gene” (Garvan Institute of Medical Research, priority 1997, dated 2006)
# Entries after “also recorded” stand apart in the source; their conditions may differ. Numbered stars: 1 amine (or outer) side, 2 acyl side, 3 side chain; on linkers, the order of the positions; unused ones are H or OH. Bridge positions count the residues as written; N and C are the ends. Square brackets hold non-standard residues; d marks the D form. Peptide text beside a SMILES is read from it. I, II: the chains in the order shown. Actinocin(9to1) = Cc1c2oc3c(C)ccc(C(=O)[*:1])c3nc-2c(C(=O)[*:2])c(N)c1=O; NMeV = CN[C@H](C(=O)O)C(C)C; Sar = CNCC(=O)O
# B1: truncated EDD: 890 amino acid truncated EDD protein, aa 1910 to aa 2799, carboxyl terminus with HECT domain (protein)
# chain: MMSARGDFLNYALSLMRSHNDEHSDVLPVLDVCSLKHVAYVFQALIYWIKAMNQQTTLDTPQLERKRTRELLELGIDNEDSEHENDDDTNQSATLNDKDDDSLPAETGQNHPFFRRSDSMTFLGCIPPNPFEVPLAEAIPLADQPHLLQPNARKEDLFGRPSQGLYSSSASSGKCLMEVTVDRNCLEVLPTKMSYAANLKNVMNMQNRQKKEGEEQPVLPEETESSKPGPSAHDLAAQLKSSLLAEIGLTESEGPPLTSFRPQCSFMGMVISHDMLLGRWRLSLELFGRVFMEDVGAEPGSILTELGGFEVKESKFRREMEKLRNQQSRDLSLEVDRDRDLLIQQTMRQLNNHFGRRCATTPMAVHRVKVTFKDEPGEGSGVARSFYTAIAQAFLSNEKLPNLECIQNANKGTHTSLMQRLRNRGERDREREREREMRRSSGLRAGSRRDRDRDFRRQLSIDTRPFRPASEGNPSDDPEPLPAHRQALGERLYPRVQAMQPAFASKITGMLLELSPAQLLLLLASEDSLRARVDEAMELIIAHGRENGADSILDLGLVDSSEKVQQENRKRHGSSRSVVDMDLDDTDDGDDNAPLFYQPGKRGFYTPRPGKNTEARLNCFRNIGRILGLCLLQNELCPITLNRHVIKVLLGRKVNWHDFAFFDPVMYESLRQLILASQSSDADAVFSAMDLAFAIDLCKEEGGGQVELIPNGVNIPVTPQNVYEYVRKYAEHRMLVVAEQPLHAMRKGLLDVLPKNSLEDLTAEDFRLLVNGCGEVNVQMLISFTSFNDESGENAEKLLQFKRWFWSIVEKMSMTERQDLVYFWTSSPSLPASEEGFQPMPSITIRPPDDQHLPTANTCISRLYVPLYSSKQILKQKLLLAIKTKNFGFV
# Legend:
# EDD mRNA = assay: Northern analysis of EDD mRNA in progestin-treated T-47D cells; format: cell-based, human
# Method: (§1) The sources and maintenance of the human breast cancer and normal cell lines used were as described previously (12, 22), as were tissue culture experiments (12). Briefly, progestin (ORG 2058, 10 nM) and/or cycloheximide (20 μg/ml) or actinomycin D (5 μg/ml) was added to the medium and control flasks received the same volume of vehicle alone. To obtain RNA for differential display, cells were grown in insulin-supplemented serum-free medium and treated for 3 h with ORG 2058 or ethanol vehicle. Subsequent progestin stimulation experiments were carried out in medium containing 5% charcoal-stripped fetal calf serum without insulin.
# Cells harvested from duplicate 150 cm^2 flasks were pooled, RNA extracted by a guanidinium-isothiocyanate-cesium chloride procedure and Northern analysis was performed as previously described with 20 μg of total RNA per lane (3, 23). The membranes were hybridized overnight (50° C.) with probes labelled with [a-^32P]dCTP (Amersham Australia Pty Ltd) using a Prime-a-Gene labelling kit (Promega Corp., Sydney, Australia). The membranes were washed at a highest stringency of 0.2 ¥ SSC (30 mM NaCl, 3 minN sodium citrate [pH 7.0])/1% sodium dodecyl sulfate at 65° C. and exposed to Kodak X-OMAT or BIOMAX film at −70° C. Human multiple tissue Northern blots or RNA Master blot (CLONTECH Laboratories Inc., Palo Alto, Calif.) were hybridized under conditions recommended by the manufacturer. The MRNA abundance was quantitated by densitometric analysis of autoradiographs using Molecular
# Dynamics Densitometer and software (Molecular Dynamics, Sunnyvale, Calif.). The accuracy of loading was estimated by re-hybridizing membranes with a [g-^32P]ATP end-labelled oligonucleotide complementary to 18S rRNA (24, 25).
# EDD = assay: Differential display RT-PCR of T-47D cells treated with ORG 2058; format: cell-based, human; details: ORG 2058 for 3 h
# Method: as §1
# Differential display was carried out as previously described (11) using a Heiroglyph mRNA Profile Kit No. 1 (Genomyx Corporation, Foster City, Calif.) and recommended protocol. First strand cDNA synthesis was carried out in 96-well format 0.2 ml thin walled tubes. Typically 200 ng total RNA from T-47D cells treated with the synthetic progestin ORG 2058 for 3 h or from control T-47D cells was reverse transcribed with Expand Reverse Transcriptase enzyme (Boehringer Mannheim Pty Ltd, Castle Hill, Australia) following annealing with 4 pmol anchored primer (5′[…]12AC (SEQ ID NO:6)). […] The PCR products were denatured and separated on a 4.5% denaturing polyacrylamide gel at 800 v for 16 h using the Genomyx Long Read Sequencing System reagents and apparatus. […]
# T-47D cells = details: ORG 2058, same conditions, reference (3); cited from earlier work
# [1] = target: T1, GST-ubiquitin fusion protein (Homo sapiens, UniProt P0CG47); assay: Ubiquitin-binding assay (thiol ester formation); format: biochemical; details: in vitro translated 35S-labelled protein, absence of DTT; abolished by 100 mM DTT
# T1 construct: purified GST-ubiquitin fusion protein
# Method: [^35S]-labelled in vitro translated truncated (˜100 kDa) or full length protein was tested for its ability to bind ubiquitin by incubating 5 μl translation reaction with or without 5 μg purified GST protein or GST-ubiquitin fusion protein for 10 min at 25° C. […] Reactions were terminated by incubating the mixtures in either SDS-sample buffer containing 100 mM DTT at 95° C. for 5 min or in SDS-sample buffer containing 4 M urea instead of DTT at 25° C. for 20 min. Samples were resolved by SDS-PAGE through 6% or 7% gels followed by drying and autoradiography.
molecule,measurement,setting,value
"C[C@@H]1C[C@@H]([C@H](O)CC2CC(=O)NC(=O)C2)C(=O)[C@@H](C)C1 [cycloheximide, Cycloheximide]",effect on ORG 2058 induction of EDD mRNA levels,"EDD mRNA; 10 nM ORG 2058 with cycloheximide (20 μg/ml), 1 h",prevented
"CCC1CC2C3CCC4=CC(=O)CCC4C3CCC2(C)C1C(=O)CO (stereo not drawn) [ORG 2058, 16a-ethyl-21-hydroxy-19-norpregn-4-en-3,20-dione]",maximal EDD mRNA levels above control,"EDD mRNA; progestin (ORG 2058), observed at 6 h, transient",3 to 4 fold
same,"abundance of EDD DD-PCR product, treated versus control",EDD,more abundant in treated samples than in control samples; also recorded: present at a higher level
same,time of increase in the S phase fraction,T-47D cells,12 to 14 h
"Cc1c2oc3c(C)ccc(C(=O)N[C@@H]4C(=O)N[C@H](C(C)C)C(=O)N5CCC[C@H]5C(=O)N(C)CC(=O)N(C)[C@@H](C(C)C)C(=O)O[C@@H]4C)c3nc-2c(C(=O)N[C@@H]2C(=O)N[C@H](C(C)C)C(=O)N3CCC[C@H]3C(=O)N(C)CC(=O)N(C)[C@@H](C(C)C)C(=O)O[C@@H]2C)c(N)c1=O [actinomycin D, Actinomycin D] (I: T[dV]P[Sar][NMeV] / II: T[dV]P[Sar][NMeV]; ester I:1-I:C, II:1-II:C; linker I:N-II:N via Actinocin(9to1))",effect on ORG 2058 induction of EDD mRNA levels,"EDD mRNA; 10 nM ORG 2058 with actinomycin D (5 μg/ml), 3 h",blocked
B1,formation of GST-ubiquitin / ubiquitin thioester conjugate,[1],an additional higher molecular mass protein band was observed
